# Experimental data reported in publication PMC9005681, “Use of AD Informer Set compounds to explore validity of novel targets in Alzheimer's disease pathology” (Alzheimer's & Dementia : Translational Research & Clinical …, 2022).
# Counter-ions that a name gives are not always drawn. Like-named read-outs stand apart in the source and are kept apart here.
# How the values were obtained:
# Aβ40 and Aβ42 = system: Aβ40 and Aβ42; set-up: method as in PMID 25331948; settings: 2 mg/kg; cited from earlier work
# tau phosphorylation [1] = system: tau phosphorylation; set-up: method as in PMID 25331948; settings: only observed at 10 μM; cited from earlier work
# GPCRs = settings: profiled against many of the same GPCRs; cited from earlier work
# tau phosphorylation [2] = system: tau phosphorylation; set-up: method as in PMID 32063836, PMID 28502066; settings: cited from earlier work
# [3] = system: BV2 (mouse microglia) immortalized cell line; settings: 10 μM single concentration, normalized to control (DMSO) treated cells; in % (unit assumed); cited from earlier work
# [4] = system: HMC3 (human microglia) immortalized cell line; test: Microglial cell viability (cell count, nuclear measures), HMC3; format: cell-based; settings: 10-point dose-response up to 20 or 40 μM, 24 or 48 h
# Procedure: Microglial viability and phagocytosis studies: The pHrodo-myelin phagocytosis/cell viability assay, modified based on a published method, was run with BV2 (mouse microglia) and HMC3 (human microglia) immortalized cell lines in the Chu lab at IUSM. The 384-well plate high content analysis assay with BV2 and HMC3 microglial cell lines is used to quantify phagocytosis and cell viability simultaneously. High content imaging is performed with the ArrayScan automatic imaging system and imaging analysis done with the system’s software. Cells are treated with compounds for total 48 hours including final 20 hours seeded with pHrodo-myelin (labeled phagocytosis ligand, purified from mouse brain), then cells are stained with Hoechst-33342 one hour before the imaging. Three measurements are extracted from the assay: 1) phagocytosis signal by mean total phagocytosis spot intensity per cell, 2) total cell counts per well as the main measurement of cell viability, and 3) mean average nuclear intensity per cell as profiling of cell health since apoptotic cells showing nuclear intensity increase (early apoptosis) and decrease (later apoptosis), respectively.
# Based on the single-concentration data, several compounds were selected for 10-point dose-response follow-up in duplicate or triplicate. These compounds were initially dosed up to 20 μM for 24h. […]
# [5] = aqueous, neutral pH (7.4); cited from earlier work
# [6] = system: HMC3 (human microglia) immortalized cell line; settings: cited from earlier work; for Phagocytosis HMC3: 10 μM single concentration, normalized to control (DMSO) treated cells
# CYP3A43 = settings: published affinity; ref PubMed 10801218, 1526623; cited from earlier work
# [7] = system: BV2 (mouse microglia) immortalized cell line; test: pHrodo-myelin phagocytosis assay, BV2; format: cell-based; settings: 10-point dose-response up to 20 or 40 μM, 24 or 48 h
# Procedure: (§1) Microglial viability and phagocytosis studies: The pHrodo-myelin phagocytosis/cell viability assay, modified based on a published method, was run with BV2 (mouse microglia) and HMC3 (human microglia) immortalized cell lines in the Chu lab at IUSM. The 384-well plate high content analysis assay with BV2 and HMC3 microglial cell lines is used to quantify phagocytosis and cell viability simultaneously. High content imaging is performed with the ArrayScan automatic imaging system and imaging analysis done with the system’s software. Cells are treated with compounds for total 48 hours including final 20 hours seeded with pHrodo-myelin (labeled phagocytosis ligand, purified from mouse brain), then cells are stained with Hoechst- […]
# (§2) Three measurements are extracted from the assay: 1) phagocytosis signal by mean total phagocytosis spot intensity per cell, 2) total cell counts per well as the main measurement of cell viability, and 3) mean average nuclear intensity per cell as profiling of cell health since apoptotic cells showing nuclear intensity increase (early apoptosis) and decrease (later apoptosis), respectively. […]
# (§3) dose-response follow-up in duplicate or triplicate. These compounds were initially dosed up to […]
# [8] = system: BV2 (mouse microglia) immortalized cell line; test: Microglial cell viability (cell count, nuclear measures), BV2; format: cell-based; settings: 10-point dose-response up to 20 or 40 μM, 24 or 48 h
# Procedure: as §1, §2, §3
# cellular system = system: cellular system; set-up: method as in column References for potency and dosing (the 5th table c13); settings: published data; References for potency and dosing; cited from earlier work
# [9] = system: HMC3 (human microglia) immortalized cell line; test: pHrodo-myelin phagocytosis assay, HMC3; format: cell-based; settings: 10-point dose-response up to 20 or 40 μM, 24 or 48 h
# Procedure: as §1, §2, §3
# [10] = system: HMC3 (human microglia) immortalized cell line; settings: 10 μM single concentration, normalized to control (DMSO) treated cells; in % (unit assumed); cited from earlier work
# [11] = system: BV2 (mouse microglia) immortalized cell line; settings: cited from earlier work; for Phagocytosis BV2: 10 μM single concentration, normalized to control (DMSO) treated cells
# ALK = system: ALK; set-up: method as in PubMed 24819116, 25733882; settings: published affinity; ref PubMed 24819116, 25733882; cited from earlier work
# ERBB3 (HER3) = system: ERBB3 (HER3); set-up: method as in PubMed 20145185; settings: published affinity; ref PubMed 20145185; cited from earlier work
# [12] = 10 μM, murine immortalized microglial cells
# [13] = 10 μM, human immortalized microglial cells
smiles,measurement,setting,value
COc1ccc(-c2cc3nccn3c(Nc3ncccc3C(N)=O)n2)cc1OC [BAY61‐3606],Detectable levels of Aβ40 and Aβ42,Aβ40 and Aβ42,significant reduction
same,Tau phosphorylation,tau phosphorylation [1],indirectly reduces tau phosphorylation
COc1cc(-c2cc3ncccc3c(O[C@H](C)[C@H]3CNC(=O)C3)n2)cc(OC)c1OC [BI1002494],GPCR affinity (published profiling),GPCRs,lacked this activity
O=c1c2ccccc2[se]n1-c1ccccc1 [Ebselen],Tau phosphorylation,tau phosphorylation [2],decrease tau phosphorylation
"CC(=O)N1CCN(c2ccc(OCC3COC(Cn4ccnc4)(c4ccc(Cl)cc4Cl)O3)cc2)CC1 (stereo not drawn) [UNC10100724A, Ketoconazole]",Cell number BV2,[3],129.7
same,DNA intensity BV2,[3],104.7
same,Nuclear size BV2,[3],103.8
same,"Toxicity in dose-response follow-up, HMC3",[4],without notable toxicity
same,Kinetic solubility,[5],119.6 µM
same,Phagocytosis HMC3,[6],144.4
same,"Reported on-target biochemical potency, CYP3A43",CYP3A43,64000 nM
same,"Phagocytosis in dose-response follow-up, BV2",[7],stimulation of phagocytosis was observed
same,"Toxicity in dose-response follow-up, BV2",[8],without notable toxicity
same,Reported as cell active (<10 μM),cellular system,Y (Published data supports that the compound is active in a cellular system when dosed at 10 μM (Y/N))
same,"Phagocytosis in dose-response follow-up, HMC3",[9],stimulation of phagocytosis was observed
same,Cell number HMC3,[10],125.5
same,DNA intensity HMC3,[10],100.1
same,Nuclear size HMC3,[10],96.3
same,Phagocytosis BV2,[11],280.0
same,Stimulation of mouse microglial phagocytosis at 10 μM (>150% control),[11]; [12],Y (The compound was found to stimulate phagocytosis (response threshold: >150% control) when murine immortalized microglial cells were dosed at 10 μM (Y: yes))
"COc1cc2c(cc1OC)C(=O)C(CC1CCN(Cc3ccccc3)CC1)C2 (stereo not drawn) [UNC10240506B, Donepezil Hydrochloride (E2020)]",DNA intensity BV2,[3],104.5
same,Reported as cell active (<10 μM),cellular system,Y (Published data supports that the compound is active in a cellular system when dosed at 10 μM (Y/N))
same,Cell number HMC3,[10],130.2
same,DNA intensity HMC3,[10],98.0
"C[C@H]1Oc2cc(cnc2N)-c2c(nn(C)c2C#N)CN(C)C(=O)c2ccc(F)cc21 [UNC10244898A, Lorlatinib]",Cell number BV2,[3],117.2
same,DNA intensity BV2,[3],110.1
same,Nuclear size BV2,[3],102.7
same,"Toxicity in dose-response follow-up, HMC3",[4],Some toxicity was observed
same,Kinetic solubility,[5],172 µM
same,Phagocytosis HMC3,[6],37.8
same,Inhibition of human microglial phagocytosis at 10 μM (<70% control),[6]; [13],Y (The compound was found to inhibit phagocytosis (response threshold: <70% control) when human immortalized microglial cells were dosed at 10 μM (Y: yes))
same,"Phagocytosis in dose-response follow-up, BV2",[7],inhibition/stimulation of phagocytosis occurred at a much lower concentration
same,"Toxicity in dose-response follow-up, BV2",[8],Some toxicity was observed
same,"Reported on-target biochemical potency, ALK",ALK,<0.07 nM
same,Reported as cell active (<10 μM),cellular system,Y (Published data supports that the compound is active in a cellular system when dosed at 10 μM (Y/N))
same,"Phagocytosis in dose-response follow-up, HMC3",[9],inhibition/stimulation of phagocytosis occurred at a much lower concentration
same,Cell number HMC3,[10],127.2
same,DNA intensity HMC3,[10],89.2
same,Nuclear size HMC3,[10],110.3
same,Phagocytosis BV2,[11],200.3
same,Stimulation of mouse microglial phagocytosis at 10 μM (>150% control),[11]; [12],Y (The compound was found to stimulate phagocytosis (response threshold: >150% control) when murine immortalized microglial cells were dosed at 10 μM (Y: yes))
"CNC(=O)CN1CCC(Oc2cc3c(Nc4cccc(Cl)c4F)ncnc3cc2OC)CC1 [UNC10302865A, Sapitinib (AZD8931)]",Cell number BV2,[3],102.4
same,DNA intensity BV2,[3],101.0
same,Nuclear size BV2,[3],110.1
same,"Reported on-target biochemical potency, ERBB3 (HER3)",ERBB3 (HER3),4 nM
same,Kinetic solubility,[5],114.6 µM
same,Phagocytosis HMC3,[6],152.7
same,Stimulation of human microglial phagocytosis at 10 μM (>150% control),[6]; [13],Y (The compound was found to stimulate phagocytosis (response threshold: >150% control) when human immortalized microglial cells were dosed at 10 μM (Y: yes))
same,"Phagocytosis in dose-response follow-up, BV2",[7],inhibition of phagocytosis
same,"Toxicity in dose-response follow-up, BV2",[8],Some toxicity was observed at the highest concentrations
same,Reported as cell active (<10 μM),cellular system,Y (Published data supports that the compound is active in a cellular system when dosed at 10 μM (Y/N))
same,"Phagocytosis in dose-response follow-up, HMC3",[9],stimulation of microglial phagocytosis
same,Cell number HMC3,[10],132.1
same,DNA intensity HMC3,[10],90.8
same,Nuclear size HMC3,[10],105.8
same,Phagocytosis BV2,[11],68.8
same,Inhibition of mouse microglial phagocytosis at 10 μM (<70% control),[11]; [12],Y (The compound was found to inhibit phagocytosis (response threshold: <70% control) when murine immortalized microglial cells were dosed at 10 μM (Y: yes))
